Like-named read-outs stand apart in the source and are kept apart here.
Test system: T1, synaptosomal proteome
T1 construct: from tissue; host or cells: brain synaptosomes of male C57/B6 mice
Assay type: binding, mouse
Protocol: Synaptosomes were resuspended to 1 mg of protein/ml in HEPES buffer medium (in mM: 140 NaCl, 5 KCl, 5 NaHCO3, 1.2 NaH2PO4, 1 MgCl2, 10 glucose, and 10 HEPES (pH 7.4)). […] The samples were allowed to equilibrate for 5 min before being transferred to a parafilm-sealed 1-mm path length quartz cuvette. The sample was then irradiated for 20 min at a peak bandwidth of 350 nm (Rayonet RPR-3500 lamp) ∼6 cm from the light source. Non-irradiated samples were left in the dark at ambient temperature (22–25 °C) for 20 min. All remaining procedures were conducted with restricted light exposure.
To 750 μg of photolabeled or control synaptosome samples, 40 μl of 10% SDS and 2 μl of 5 mM DTT in water were added. Samples were then vortexed, heated for 10 min at 65 °C, and then briefly cooled. Final concentrations of 150 μM azide-biotin (Click Chemistry Tools), 2 mM tris(3-hydroxypropyltriazolylmethyl)amine (Sigma), 1 mM ascorbic acid (Sigma), and 1 mM CuSO4·5H2O (Sigma) were added to each sample and vortexed vigorously. The samples were left in the dark at ambient temperature (22–25 °C) for 1 h with mild agitation. Directly to each sample 4× volume chilled methanol, 1.5× chilled chloroform, and 3× chilled double distilled H2O were added. Samples were vortexed vigorously and centrifuged at 1,400 × g for 30 min at 4 °C. Both liquid layers were carefully removed, and the protein pellet was washed with 2 ml of 1:1 (v/v) chilled methanol/chloroform. Samples were centrifuged at 3,500 × g for 30 min at 4 °C. Protein pellets were briefly air-dried before further processing.
750 μg of biotin-conjugated protein sample was resuspended in 500 μl of 25 mM NH4HCO3 and 6 M urea in water. Next, 150 μl of 5% Triton X-100 in water, 50 μl of 10% SDS in water, and 1.5 μl of 0.5 M DTT were added. The samples were heated for 15 min at 65 °C. After briefly cooling, 14 μl of 0.5 M iodoacetamide in water was added, and the sample was left in the dark for 45 min. […] The supernatant was diluted to 4 ml with PBS, and 2 ml of PBS containing 100 μl of 50% streptavidin-agarose resin (Thermo Scientific) was added. Biotinylated proteins within the sample were captured over resin overnight at 4 °C with mild agitation. The resin was first washed with 6 ml of 1% SDS in PBS, and then 7 ml of 0.1 M urea in PBS followed by 10 ml of PBS. The resin underwent a final wash with 0.9 ml of 50 mM Tris-HCl and 1 mM CaCl2 in water (pH 8.0) and then resuspended in 200 μl of 50 mM Tris-HCl, 1 mM CaCl2 in water (pH 8.0), and 2 μg of porcine sequencing grade trypsin (Promega). Samples were digested overnight at 37 °C. Samples were then centrifuged at 2,000 × g for 4 min, and digest supernatant was decanted. Beads were washed in 100 μl of PBS centrifuged at 5,200 × g for 5 min, and the wash was combined with the digest supernatant. To the combined sample, trifluoroacetic acid (TFA) was added to 0.4% (v/v) or until pH <2. The sample was desalted with Oasis C18 10-mg columns (Waters) as described previously ([66]). The eluted sample was dried by speed vac and resuspended in 0.1 M HEPES buffer (pH 8.5). […] Appropriate corresponding TMTsixplex^TM-labeled samples were pooled and dried by speed vac. The combined samples were resuspended in 0.5% acetic acid in water and pH-corrected with acetic acid until pH was <2. 40 μg of protein was desalted with C18 stage tips prepared in-house and dried by speed vac.
Samples were resuspended in 10 mM KH2PO4 (pH 2.6), 30% acetonitrile (v/v) in water, and fractionated by off-line strong cation exchange chromatography prior to mass spectrometry (MS) analysis similar to as reported previously ([66]). The full synaptosome proteome control was prepared similarly without TMTsixplex^TM labeling.
All TMT samples were analyzed with three-stage mass spectrometry (MS3) TMTsixplex^TM quantification workflow as described previously ([34]).

[1] = protein P26049 Gamma-aminobutyric acid receptor subunit alpha-3 (Gabra3)
[2] = protein P27671 Ras-specific guanine nucleotide-releasing factor 1 (Rasgrf1)
[3] = protein P35762 CD81 antigen (Cd81)
[4] = protein P50571 Gamma-aminobutyric acid receptor subunit beta-1 (Gabrb1)
[5] = protein P56480 ATP synthase subunit beta, mitochondrial (Atp5b)
[6] = protein P56564 Excitatory amino acid transporter 1 (Slc1a3)
[7] = protein P60879 Synaptosomal-associated protein 25 (Snap25)
[8] = protein P61264 Syntaxin-1B (Stx1b)
[9] = protein P62204 Calmodulin (Calm1)
[10] = protein P63328 Serine/threonine-protein phosphatase 2B catalytic subunit alpha isoform (Ppp3ca)
[11] = protein Q2TPA8 Hydroxysteroid dehydrogenase-like protein 2 (Hsdl2)
[12] = protein Q3TXX4 Vesicular glutamate transporter 1 (Slc17a7)
[13] = protein Q3UN02 Lysocardiolipin acyltransferase 1 (Lclat1)
[14] = protein Q4W8U9 Scg2 protein (Scg2)
[15] = protein Q5IRJ6 Zinc transporter 9 (Slc30a9)
[16] = protein Q5U458 DnaJ homolog subfamily C member 11 (Dnajc11)
[17] = protein Q7TME0 Lipid phosphate phosphatase-related protein type 4 (Lppr4)
[18] = protein Q7TQ95 Protein lunapark (Lnp)
[19] = protein Q8BFT9 Synaptic vesicle 2-related protein (Svop)
[20] = protein Q8BG51 Mitochondrial Rho GTPase 1 (Rhot1)
[21] = protein Q8BH24 Transmembrane 9 superfamily member 4 (Tm9sf4)
[22] = protein Q8BH66 Atlastin-1 (Atl1)
[23] = protein Q8BHE3 Caytaxin (Atcay)
[24] = protein Q8BUN9 Protein Slc24a2 (Slc24a2)
[25] = protein Q8BW75 Amine oxidase [flavin-containing] B (Maob)
[26] = protein Q8CGK7 Guanine nucleotide-binding protein G(olf) subunit alpha (Gnal)
[27] = protein Q8K0T0 Reticulon-1 (Rtn1)
[28] = protein Q8VCX5 Calcium uptake protein 1, mitochondrial (Micu1)
[29] = protein Q9CPQ3 Mitochondrial import receptor subunit TOM22 homolog (Tomm22)
[30] = protein Q9D6J5 NADH dehydrogenase [ubiquinone] 1 beta subcomplex subunit 8, mitochondrial (Ndufb8)
[31] = protein Q9D328 Transmembrane protein 35 (Tmem35)
[32] = protein Q9ERS2 NADH dehydrogenase [ubiquinone] 1 alpha subcomplex subunit 13 (Ndufa13)
[33] = protein Q9ESW4 Acylglycerol kinase, mitochondrial (Agk)
[34] = protein Q9JIG8 PRA1 family protein 2 (Praf2)
[35] = protein Q9QXV0 ProSAAS (Pcsk1n)
[36] = protein Q9WU79 Proline dehydrogenase 1, mitochondrial (Prodh)
[37] = protein Q9Z0V2 Potassium voltage-gated channel subfamily D member 2 (Kcnd2)
[38] = protein Q67BT3 Solute carrier family 13 member 5 (Slc13a5)
[39] = protein Q80X80 C2 domain-containing protein 2-like (C2cd2l)
[40] = protein Q91YQ5 Dolichyl-diphosphooligosaccharide--protein glycosyltransferase subunit 1 (Rpn1)
[41] = protein Q99JB2 Stomatin-like protein 2, mitochondrial (Stoml2)
[42] = protein Q99PU5 Long-chain-fatty-acid--CoA ligase ACSBG1 (Acsbg1)
[43] = protein Q925I1 ATPase family AAA domain-containing protein 3 (Atad3)

SMILES: C#CCOCc1ccc(C2(C(F)(F)F)N=N2)cc1O [AziPm-click (1), 2-((prop-2-yn-1-yloxy)methyl)-5-(3-(trifluoromethyl)-3H-diazirin-3-yl)phenol]
- TMT Ratio Mean 'UV/ No UV' (protein O35963 Ras-related protein Rab-33B (Rab33b)): 16.23
- Log2( Mean 'UV/ No UV') (protein P23819-4 Isoform 4 of Glutamate receptor 2 (Gria2)): 3.65
- Log2( Mean 'UV/ No UV') [1]: 4.09
- TMT Ratio Mean 'UV/ No UV' [1]: 17.05
- Log2( Mean 'UV/ No UV') [2]: 4.14
- TMT Ratio Mean 'UV/ No UV' [2]: 17.58
- Log2( Mean 'UV/ No UV') (protein P35564 Calnexin (Canx)): 4.47
- TMT Ratio Mean 'UV/ No UV' (protein P35564 Calnexin (Canx)): 22.10
- Log2( Mean 'UV/ No UV') [3]: 4.34
- TMT Ratio Mean 'UV/ No UV' [3]: 20.23
- Log2( Mean 'UV/ No UV') [4]: 4.63
- TMT Ratio Mean 'UV/ No UV' [4]: 24.73
- Log2( Mean 'UV/ No UV') [5]: 3.54
- TMT Ratio Mean 'UV/ No UV' [5]: 11.59
- Log2( Mean 'UV/ No UV') [6]: 4.59
- TMT Ratio Mean 'UV/ No UV' [6]: 24.11
- Log2( Mean 'UV/ No UV') [7]: 4.57
- TMT Ratio Mean 'UV/ No UV' [7]: 23.77
- Log2( Mean 'UV/ No UV') [8]: 4.37
- TMT Ratio Mean 'UV/ No UV' [8]: 20.71
- Log2( Mean 'UV/ No UV') [9]: 4.63
- TMT Ratio Mean 'UV/ No UV' [9]: 24.78
- Log2( Mean 'UV/ No UV') [10]: 3.65
- TMT Ratio Mean 'UV/ No UV' [10]: 12.55
- Log2( Mean 'UV/ No UV') (protein P70429-2 Isoform 1 of Ena/VASP-like protein (Evl)): 4.31
- Log2( Mean 'UV/ No UV') (protein P97300-3 Isoform 3 of Neuroplastin (Nptn)): 3.67
- Log2( Mean 'UV/ No UV') [11]: 3.68
- TMT Ratio Mean 'UV/ No UV' [11]: 12.83
- Log2( Mean 'UV/ No UV') [12]: 4.04
- TMT Ratio Mean 'UV/ No UV' [12]: 16.48
- Log2( Mean 'UV/ No UV') [13]: 4.50
- TMT Ratio Mean 'UV/ No UV' [13]: 22.69
- Log2( Mean 'UV/ No UV') [14]: 4.03
- TMT Ratio Mean 'UV/ No UV' [14]: 16.35
- Log2( Mean 'UV/ No UV') [15]: 4.34
- TMT Ratio Mean 'UV/ No UV' [15]: 20.22
- Log2( Mean 'UV/ No UV') [16]: 3.93
- TMT Ratio Mean 'UV/ No UV' [16]: 15.27
- Log2( Mean 'UV/ No UV') [17]: 3.46
- TMT Ratio Mean 'UV/ No UV' [17]: 10.98
- Log2( Mean 'UV/ No UV') [18]: 3.56
- TMT Ratio Mean 'UV/ No UV' [18]: 11.82
- Log2( Mean 'UV/ No UV') [19]: 3.80
- TMT Ratio Mean 'UV/ No UV' [19]: 13.90
- Log2( Mean 'UV/ No UV') [20]: 3.48
- TMT Ratio Mean 'UV/ No UV' [20]: 11.17
- Log2( Mean 'UV/ No UV') [21]: 4.09
- TMT Ratio Mean 'UV/ No UV' [21]: 16.97
- Log2( Mean 'UV/ No UV') [22]: 4.36
- TMT Ratio Mean 'UV/ No UV' [22]: 20.55
- Log2( Mean 'UV/ No UV') [23]: 4.15
- TMT Ratio Mean 'UV/ No UV' [23]: 17.78
- Log2( Mean 'UV/ No UV') (protein Q8BJU0-2 Isoform 2 of Small glutamine-rich tetratricopeptide repeat-containing protein alpha (Sgta)): 3.93
- Log2( Mean 'UV/ No UV') [24]: 4.26
- TMT Ratio Mean 'UV/ No UV' [24]: 19.15
- Log2( Mean 'UV/ No UV') [25]: 4.59
- TMT Ratio Mean 'UV/ No UV' [25]: 24.13
- Log2( Mean 'UV/ No UV') [26]: 3.86
- TMT Ratio Mean 'UV/ No UV' [26]: 14.56
- Log2( Mean 'UV/ No UV') [27]: 3.46
- TMT Ratio Mean 'UV/ No UV' [27]: 10.99
- Log2( Mean 'UV/ No UV') [28]: 4.33
- TMT Ratio Mean 'UV/ No UV' [28]: 20.04
- Log2( Mean 'UV/ No UV') [29]: 4.38
- TMT Ratio Mean 'UV/ No UV' [29]: 20.75
- Log2( Mean 'UV/ No UV') [30]: 4.29
- TMT Ratio Mean 'UV/ No UV' [30]: 19.55
- Log2( Mean 'UV/ No UV') [31]: 4.09
- TMT Ratio Mean 'UV/ No UV' [31]: 16.99
- Log2( Mean 'UV/ No UV') (protein Q9DBF1-2 Isoform 2 of Alpha-aminoadipic semialdehyde dehydrogenase (Aldh7a1)): 3.89
- Log2( Mean 'UV/ No UV') (protein Q9EPJ9-2 Isoform 2 of ADP-ribosylation factor GTPase-activating protein 1 (Arfgap1)): 3.44
- Log2( Mean 'UV/ No UV') [32]: 4.27
- TMT Ratio Mean 'UV/ No UV' [32]: 19.26
- Log2( Mean 'UV/ No UV') [33]: 4.32
- TMT Ratio Mean 'UV/ No UV' [33]: 20.02
- Log2( Mean 'UV/ No UV') [34]: 3.94
- TMT Ratio Mean 'UV/ No UV' [34]: 15.37
- Log2( Mean 'UV/ No UV') [35]: 3.87
- TMT Ratio Mean 'UV/ No UV' [35]: 14.66
- Log2( Mean 'UV/ No UV') [36]: 4.21
- TMT Ratio Mean 'UV/ No UV' [36]: 18.52
- Log2( Mean 'UV/ No UV') [37]: 3.71
- TMT Ratio Mean 'UV/ No UV' [37]: 13.09
- Log2( Mean 'UV/ No UV') [38]: 3.47
- TMT Ratio Mean 'UV/ No UV' [38]: 11.09
- Log2( Mean 'UV/ No UV') [39]: 4.07
- TMT Ratio Mean 'UV/ No UV' [39]: 16.73
- Log2( Mean 'UV/ No UV') [40]: 3.76
- TMT Ratio Mean 'UV/ No UV' [40]: 13.55
- Log2( Mean 'UV/ No UV') [41]: 4.08
- TMT Ratio Mean 'UV/ No UV' [41]: 16.91
- Log2( Mean 'UV/ No UV') [42]: 4.16
- TMT Ratio Mean 'UV/ No UV' [42]: 17.83
- Log2( Mean 'UV/ No UV') [43]: 4.41
- TMT Ratio Mean 'UV/ No UV' [43]: 21.20
